PubChem BioAssay (NCI)
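Following 48 hours of exposure in 96-well plates, responses at five concentrations were used to interpolate endpoints linearly. Abbreviation: GI50, concentration required for 50% inhibition of growth. TGI marks complete inhibition of growth.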

Legend:
Test in all cases: growth of human tumour cells (NCI), 48 h
UACC-62 melanoma = system: UACC-62 melanoma
MOLT-4 leukemia = system: MOLT-4 leukemia
CAKI-1 renal = system: CAKI-1 renal
SF-539 CNS = system: SF-539 CNS
OVCAR-8 ovarian = system: OVCAR-8 ovarian
COLO 205 colon = system: COLO 205 colon
MCF7 breast = system: MCF7 breast
OVCAR-5 ovarian = system: OVCAR-5 ovarian
MDA-MB-435 = system: MDA-MB-435
HS 578T breast = system: HS 578T breast

SMILES	TGI (UACC-62 melanoma)	TGI (MOLT-4 leukemia)	TGI (CAKI-1 renal)	TGI (SF-539 CNS)	TGI (OVCAR-8 ovarian)	TGI (COLO 205 colon)	TGI (MCF7 breast)	TGI (OVCAR-5 ovarian)	TGI (MDA-MB-435)	TGI (HS 578T breast)	GI50 (MOLT-4 leukemia)	GI50 (CAKI-1 renal)	GI50 (SF-539 CNS)	GI50 (OVCAR-8 ovarian)	GI50 (COLO 205 colon)	GI50 (MCF7 breast)	GI50 (HS 578T breast)	GI50 (OVCAR-5 ovarian)
CCOP(=O)(/C=C/n1cc(C)c(=O)[nH]c1=O)OCC	> 100 µM	> 100 µM	> 100 µM	> 100 µM	> 100 µM	> 100 µM	> 100 µM	> 100 µM	> 100 µM									
C[s+]1c2ccccc2c2ccccc21	> 100 µM	> 100 µM		> 100 µM	> 100 µM	> 100 µM		> 100 µM										
NC(=O)CCC(N=c1c2ccccc2n(O)c2ccccc12)C(=O)O (stereo not drawn)	> 100 µM	> 100 µM			> 100 µM	> 100 µM		> 100 µM										
CC(O)c1nc(C#N)c(N)o1 (stereo not drawn)	> 100 µM	> 100 µM	> 100 µM	> 100 µM	> 100 µM	> 100 µM	> 100 µM	> 100 µM		> 100 µM								
CC(C)(C)C(=O)Nc1c(C=O)ccc2[nH]cnc12		73.7 µM	> 100 µM	> 100 µM	> 100 µM	> 100 µM	> 100 µM	> 100 µM	> 100 µM									
O=C1c2ccccc2-c2nc3ccncc3n21	> 100 µM	> 100 µM	> 100 µM	> 100 µM	> 100 µM	> 100 µM	> 100 µM	> 100 µM										
COc1cc2c[n+]3c4c(c2c(OC)c1OC)CCCC4CC3 (stereo not drawn)	> 100 µM	> 100 µM	> 100 µM			> 100 µM		> 100 µM	> 100 µM	62.3 µM								
C=C(C)C1CC(=O)C(C)=C(O)C1 (stereo not drawn)	> 100 µM	> 100 µM	> 100 µM	> 100 µM	> 100 µM	> 100 µM	> 100 µM	> 100 µM		> 100 µM								
CC(=O)n1[nH]c(=O)n(-c2ccc(Cl)cc2)c1=O	> 100 µM	> 100 µM	> 100 µM		> 100 µM	> 100 µM	> 100 µM	> 100 µM	> 100 µM									
CCC1(O)CC(CCN(Cc2ccccc2)C(=O)OCc2ccccc2)C(OCc2ccccc2)C1O (stereo not drawn)	28.3 µM	7.56 µM	65.7 µM		30.1 µM	34.2 µM	28.8 µM	41.2 µM	38.2 µM									
COC(=O)C1=C(CCCCO[Si](C)(C)C(C)(C)C)NC(=O)N2[C@H](CCOCc3ccccc3)CC[C@@H]12	> 100 µM	> 100 µM	> 100 µM	> 100 µM		> 100 µM	> 100 µM	> 100 µM	> 100 µM									
CC1=NN(C(=O)CC(=O)Nc2cccc(C)c2)C(=O)C1N=Nc1ccc(S(=O)(=O)CCOS(=O)(=O)O)cc1 (stereo not drawn)	9.34 µM	> 31.7 µM	2.96 µM	6.49 µM	> 22.4 µM	8.42 µM	13.4 µM	66.2 µM		15.3 µM								
Nc1c(C(=O)c2ccc(Cl)c(Cl)c2)[nH]c(NCc2ccccc2)c1C(=S)Nc1ccccc1	29.2 µM	> 100 µM	32.2 µM	6.47 µM	30.2 µM	3.79 µM	12.3 µM	28.2 µM	18.3 µM									
Cn1c(=O)c2c(nc3[nH]c(=O)c(Br)cn32)n(C)c1=O	> 100 µM	> 100 µM	> 100 µM	> 100 µM	> 100 µM	> 100 µM		> 100 µM	> 100 µM	> 100 µM								
CC(=O)CC1(CBr)Nc2ccc([N+](=O)[O-])cc2NC1=O (stereo not drawn)	> 100 µM	> 100 µM	> 100 µM	> 100 µM	> 100 µM	> 100 µM	> 100 µM	> 100 µM	> 100 µM									
CC1=C(C)C(=O)C(C2=CC(=O)c3ccccc3C2=O)=C(C2=CC(=O)c3ccccc3C2=O)C1=O	27.6 µM	> 36.2 µM	8.86 µM	> 100 µM	> 62.3 µM	9.77 µM		> 100 µM	1.19 µM	> 100 µM								
CCOC(=O)c1c(N)sc2c1C(C(=O)OCC)CCCC2 (stereo not drawn)	> 100 µM	> 100 µM			> 100 µM	> 100 µM	> 100 µM	> 100 µM		> 100 µM								
O=C(Nc1ccccc1)N1CCN(C(=O)Nc2ccccc2)C1=S		> 100 µM	> 100 µM	41.5 µM	> 100 µM	> 100 µM			> 100 µM	> 100 µM								
O=C1c2cc3c(cc2-c2c1c1cc(F)c(F)cc1c(=O)n2CCCn1ccnc1)OCO3		1.24 µM	1.42 µM	0.0457 µM	> 100 µM	1.62 µM	1.39 µM	> 100 µM		> 100 µM	< 0.01 µM	< 0.01 µM	< 0.01 µM	0.022 µM	0.0293 µM	< 0.01 µM	1.89 µM	0.0832 µM
COP(=O)(OC)OCN(C)CC/C=C(\C)CC/C=C(\C)CCC=C(C)C		28.9 µM	33.8 µM	30.3 µM	29.5 µM	34 µM	28.5 µM	39.1 µM	40.2 µM									
